According to patent EP3335720A1, “C-DI-GMP BINDING PEPTIDES” (Universität Basel, priority 2016, dated 2018):
Read-outs that look alike come from different tables or passages of the source. Peptide text beside a SMILES is read from it. * marks the point of attachment. FITC = O=C1OC2(c3ccc(O)cc3Oc3cc(O)ccc32)c2ccc(NC(=S)*)cc21

Legend:
epithelial HeLa cells = assay: Cytotoxicity assays: resazurin reduction assay and LDH release assay; format: cell-based, human; conditions: 24 hours, Figures 11 and 12
Description: The cytotoxicity of the peptides was determined with a Resazurin cell viability assay (Sigma #R7017). In a 96-well plate (Corning #3904), monolayers of epithelial HeLa ATCC CCL-2 cells were grown in 100 µl growth medium (DMEM (Sigma #D5796) containing 10% FCS). Afterwards, the medium was removed and either replaced by DMEM/10% FCS containing 2-fold serial diluted peptides with a highest concentration of 256 mg/L. After 24 hours, the medium was removed and replaced by 100 µl fresh growth medium. 1% Triton X-100 (Sigma) was used as positive lysis control. 20 µl of resazurin solution (0.1 mg/ml) was added. After 2 hours, the fluorescence signal was recorded using a microplate reader (Synergy H4 BioTek) with an excitation wavelength of 560 nm and emission wavelength 590 nm.
Cells were prepared and treated with peptides as described for the resazurin reduction assay. 24 hours after peptide treatment, control wells were treated with 1% Triton X-100 (Sigma) as lysis control. LDH release was measured using the LDH Cytotoxicity Detection Kit (Clontech). Absorbance was measured at 490 nm using a microplate reader (Synergy H4 BioTek). The percentage of cell death was calculated as follows: (LDH peptide treated - LDH untreated)/(LDH total lysis - LDH untreated)* 100.

[1] = test system: P. aeruginosa PAO1 biofilms; format: cell-based
Description: The parameter "MBIC50", as used herein, is defined as the peptide concentration leading to 50% biofilm reduction in a standard biofilm assay. Preferably, the medium used for the assay is Mueller-Hinton broth (MHB), since most bacteria can be grown in this medium, and it allows a reliable comparison of MBIC values. MBIC50 values in accordance with the invention are obtained by growing P. aeruginosa at 37°C in presence of different concentrations of peptides, without agitation, for 24 h, followed by staining the adherent biofilm, dissolving the biofilm and measuring the OD600.
The standard biofilm assay (O'Toole G.A., Pratt L.A., Watnick P.I., Newman D.K., Weaver V.B., and Kolter R. 1999. Genetic approaches to study of biofilms. Methods Enzymol. 310: 91-109) was followed with minor modification, i.e. Mueller-Hinton II broth (MHB) (Becton Dickinson #212322) was used instead of lysogenic broth (LB) or minimal medium. MHB is preferred by The European Committee on Antimicrobial Susceptibility Testing (EUCAST) as the medium for MIC determination because most bacteria can be grown in this medium, which allows a more reliable MIC values comparisons. The MBIC50 was defined as the peptide concentration leading to 50% biofilm reduction (de la Fuente-Nunez C., Korolik V., Bains M., Nguyen U., Breidenstein E. B. M., Horsman S., Lewenza S., Burrows L., Hancock, R. E. W. (2012) Inhibition of bacterial biofilm formation and swarming motility by a small synthetic cationic peptide. 56: 2696-2704). MBIC50 values were obtained by growing P. aeruginosa (PAO1) biofilms in 96-well plates (Falcon #353072) in presence of peptides at 37°C without agitation in MHB. After 24 hours, bacterial growth was evaluated by measuring the OD600 in a microtiter plate reader (EL800, BioTek). Afterwards, the plates were rinsed three times with demineralized water to remove non-attached bacteria. The adherent biofilms were stained with 0.1% Crystal Violet and subsequently dissolved in 20% acetic acid. Dissolved biofilms were quantified by measuring the OD600 in a microtiter plate reader.

c-di-GMP = assay: Binding affinity of peptides to c-di-GMP by isothermal titration calorimetry (ITC); conditions: for Dissociation constant: pH 8.0
Description: Binding affinities of peptides to c-di-GMP were measured using isothermal titration calorimetry (ITC) on a VP-ITC MicroCalorimeter (MicroCal, Northampton, MA, USA). Peptides, c-di-GMP and buffer (50 mM Tris-HCl, pH 8.0, 100 mM NaCl) were degassed for 15 min prior to filling into sample cell and syringe. All experiments were carried out at a temperature of 15°C. The data were evaluated using ITC Data Analysis in ORIGIN provided by the manufacturer.

P. aeruginosa (PAO1) = assay: P. aeruginosa growth in presence of peptides (growth curves); format: cell-based; conditions: 64 mg/L peptides, 37°C, MHB; Figure 10
Description: Growth curves were obtained by growing P. aeruginosa (PAO1) in 96-well plates (Falcon #353072) in presence of 64 mg/L peptides at 37°C with agitation in Mueller-Hinton II Broth (MHB) (BD #212322) using an Epoch 2 microplate reader (BioTek).

in vitro [2] = format: in vitro ADME, P. aeruginosa PAO1
Description: (§1) P. aeruginosa PAO1 lysate, which was used to test peptide stability, was prepared by the following procedure. 500 ml of cells grown overnight at 37°C were harvested by centrifugation at 5000 rpm, 10 min at 4°C. Pellets were resuspended in 60 ml PBS (Gibco) and centrifuged at 5000 rpm, 10 min at 4°C. Pellets were resuspended again in 20 ml PBS and centrifuged at 5000 rpm, 10 min at 4°C. Cells were disrupted using high-pressure cell disrupter (Stansted Fluid Power). Cell lysate was separated from cell debris by centrifugation at 14,000 rpm for 20 min at 4°C. Lysate was diluted 10 fold to yield a protein content of about 1 mg/ml. The lysate was used for all experiments described below.
The stability of peptides was tested against P. aeruginosa PAO1 cell lysate. About 1 to 3 µg of peptides were incubated with 5 µl P. aeruginosa PAO1 cell lysate or PBS (untreated controls) at 37°C. After 2 hours, 6 µl of 2x SDS sample buffer was added to the samples and heated to 95°C for 5 min. Samples were analyzed on 10-20% Mini-PROTEAN tris-tricine gels (BIO-RAD #4563115) according to manufacturer's recommended protocol. Band intensities were quantified using the program ImageJ (Schneider, C. A., Rasband, W. S. and Eliceiri, K. W. 2012. NIH Image to ImageJ: 25 years of image analysis. Nature methods. 9: 671-675).

in vitro [3] = format: in vitro ADME, P. aeruginosa PAO1; conditions: cells or culture medium
Description: as §1
The stability of peptides was tested against P. aeruginosa PAO1 cell lysate. […] Samples were analyzed on 10-20% Mini-PROTEAN tris-tricine gels (BIO-RAD #4563115) according to manufacturer's recommended protocol. Band intensities were quantified using the program ImageJ (Schneider, C. A., Rasband, W. S. and Eliceiri, K. W. 2012. NIH Image to ImageJ: 25 years of image analysis. Nature methods. 9: 671-675).
The protocol mentioned above was also used to compare stability of peptides in the presence of c-di-GMP. […] 14 µl samples were removed at 2, 4, 6 and 8 hours after incubation at 37°C and analyzed on tris-tricine gels as described above.

[4] = Table 3, peptides with amino acid substitution, 15°C

Row | Molecule | concentration up to which no toxic effect was shown (epithelial HeLa cells) | Dissociation constant (c-di-GMP; [4]) | effect on bacterial growth (P. aeruginosa (PAO1)) | Remaining peptide after 2 hours (in vitro [2]) | remaining at 2 h (in vitro [3]) | also measured
1 | C[C@H](NC(=O)[C@H](CO)NC(=O)[C@H](CC(N)=O)NC(=O)[C@H](Cc1ccccc1)NC(=O)[C@H](CCCNC(=N)N)NC(=O)[C@H](CCCNC(=N)N)NC(=O)[C@H](CCCNC(=N)N)NC(=O)[C@H](CC(=O)O)NC(=S)Nc1ccc2c(c1)C(=O)OC21c2ccc(O)cc2Oc2cc(O)ccc21)C(=O)N[C@@H](CC(=O)O)C(=O)N[C@@H](Cc1ccc(O)cc1)C(=O)N[C@@H](CCCCN)C(=O)NCC(=O)N1CCC[C@H]1C(=O)N[C@@H](CCCNC(=N)N)C(=O)N[C@@H](CCCNC(=N)N)C(=O)N[C@@H](CCCNC(=N)N)C(=O)N[C@@H](CCCCN)C(=O)N[C@@H](C)C(=O)N[C@@H](CC(=O)O)C(N)=O [SEQ ID NO: 43, FITC-DRRRFNSADYKGPRRRKAD-NH2] ({FITC}-DRRRFNSADYKGPRRRKAD-NH2) | ≤ 64 µg/mL |  |  |  |  | 
2 | C[C@H](NC(=O)[C@H](CO)NC(=O)[C@H](CC(N)=O)NC(=O)[C@H](Cc1ccccc1)NC(=O)[C@H](CCCNC(=N)N)NC(=O)[C@H](CCCNC(=N)N)NC(=O)[C@H](CCCNC(=N)N)NC(=O)[C@H](CC(=O)O)NC(=O)[C@H](CCCNC(=N)N)NC(=O)[C@H](CCCNC(=N)N)NC(=O)[C@H](CCCNC(=N)N)NC(=O)[C@H](CCCNC(=N)N)NC(=O)[C@H](CCCNC(=N)N)NC(=O)[C@H](CCCNC(=N)N)NC(=O)[C@H](CCCNC(=N)N)NC(=O)[C@H](CCCNC(=N)N)NC(=S)Nc1ccc2c(c1)C(=O)OC21c2ccc(O)cc2Oc2cc(O)ccc21)C(=O)N[C@@H](CC(=O)O)C(=O)N[C@@H](Cc1ccc(O)cc1)C(=O)N[C@@H](CCCCN)C(=O)NCC(=O)N1CCC[C@H]1C(=O)N[C@@H](CCCNC(=N)N)C(=O)N[C@@H](CCCNC(=N)N)C(=O)N[C@@H](CCCNC(=N)N)C(=O)N[C@@H](CCCCN)C(=O)N[C@@H](C)C(=O)N[C@@H](CC(=O)O)C(N)=O [SEQ ID NO: 48] ({FITC}-RRRRRRRRDRRRFNSADYKGPRRRKAD-NH2) | ≤ 32 µg/mL |  |  |  |  | 
3 | C[C@H](NC(=O)[C@H](CO)NC(=O)[C@H](CC(N)=O)NC(=O)[C@H](Cc1ccccc1)NC(=O)[C@H](CCCNC(=N)N)NC(=O)[C@H](CCCNC(=N)N)NC(=O)[C@H](CCCNC(=N)N)NC(=O)CNC(=O)[C@H](CC(=O)O)NC(=O)[C@H](CCCNC(=N)N)NC(=O)[C@H](CCCNC(=N)N)NC(=O)[C@H](CCCNC(=N)N)NC(=O)[C@H](CCC(N)=O)NC(=O)[C@H](CCCNC(=N)N)NC(=O)[C@H](CCCNC(=N)N)NC(=O)[C@H](CCCCN)NC(=O)[C@H](CCCCN)NC(=O)[C@H](CCCNC(=N)N)NC(=O)CNC(=O)[C@H](Cc1ccc(O)cc1)NC(=S)Nc1ccc2c(c1)C(=O)OC21c2ccc(O)cc2Oc2cc(O)ccc21)C(=O)N[C@@H](CC(=O)O)C(=O)N[C@@H](Cc1ccc(O)cc1)C(=O)N[C@@H](CCCCN)C(=O)NCC(=O)N1CCC[C@H]1C(=O)N[C@@H](CCCNC(=N)N)C(=O)N[C@@H](CCCNC(=N)N)C(=O)N[C@@H](CCCNC(=N)N)C(=O)N[C@@H](CCCCN)C(=O)N[C@@H](C)C(=O)N[C@@H](CC(=O)O)C(N)=O [SEQ ID NO: 51] ({FITC}-YGRKKRRQRRRDGRRRFNSADYKGPRRRKAD-NH2) | ≤ 64 µg/mL |  |  |  |  | MBIC50 ([1]; peptide concentration leading to 50% biofilm reduction, MHB, 37°C, 24 hours, without agitation): below 0.25 mg/L
4 | Ac-DRRRFNSADYKGPRRAKAD-NH2 [SEQ ID NO: 28, AC-DRRRFNSADYKGPRRAKAD-NH2] |  | no binding detected | do not show an effect on bacterial growth |  |  | binding affinity to c-di-GMP, in words (c-di-GMP; compared to the core sequence / peptide of SEQ ID NO: 12): significantly reduced binding affinities
5 | Ac-DRRRFNSADYKGPRRAKAD-NH2 [compound 28] |  | no binding |  | 11% | 23% | MBIC50 ([1]; PAO1, 24 h): 1 to 2 mg/L
6 | Ac-DRRRFNSADYKGPRRRKAD-NH2 [SEQ ID NO: 12, AC-DRRRFNSADYKGPRRRKAD-NH2] | ≤ 64 µg/mL |  | do not show an effect on bacterial growth | 11% | 32% | Kd (c-di-GMP; Table 3, peptides with amino acid substitution, 15°C, pH 8.0, read-out: Dissociation constant): 170 nM; MBIC50 compared to the MBIC50 of the peptide of SEQ ID NO: 28 ([1]; lower): about 4 fold
